Results taken from ChEMBL document CHEMBL1629478, “Novel alkyl- and arylcarbamate derivatives with N-benzylpiperidine and N-benzylpiperazine moieties as cholinesterases inhibitors” (Eur J Med Chem, 2010).
The source made the active and inactive calls. No cut-off for these calls is given here.

How the values were obtained:
[1] = biological target: Cholinesterase (Equus caballus) (UniProt P81908); assay: Inhibition of horse serum BChE at 100 uM preincubated for 5 mins by Ellman's method
Cholinesterase = Cholinesterase (Equus caballus, UniProt P81908)
Description: Inhibition of horse serum BChE preincubated for 5 mins by Ellman's method

[2] = biological target: Acetylcholinesterase (Electrophorus electricus) (UniProt O42275); assay: Inhibition of electric eel AChE at 100 uM preincubated for 5 mins by Ellman's method
[3] = biological target: Cholinesterase (Equus caballus) (UniProt P81908); assay: Mixed-type inhibition of horse serum BChE by Lineweaver-Burk plot analysis
[4] = biological target: Acetylcholinesterase (Electrophorus electricus) (UniProt O42275); assay: Non-competitive inhibition of electric eel AChE by Lineweaver-Burk plot analysis

Acetylcholinesterase (Electrophorus electricus), sequence (O42275 24-633 limits assumed): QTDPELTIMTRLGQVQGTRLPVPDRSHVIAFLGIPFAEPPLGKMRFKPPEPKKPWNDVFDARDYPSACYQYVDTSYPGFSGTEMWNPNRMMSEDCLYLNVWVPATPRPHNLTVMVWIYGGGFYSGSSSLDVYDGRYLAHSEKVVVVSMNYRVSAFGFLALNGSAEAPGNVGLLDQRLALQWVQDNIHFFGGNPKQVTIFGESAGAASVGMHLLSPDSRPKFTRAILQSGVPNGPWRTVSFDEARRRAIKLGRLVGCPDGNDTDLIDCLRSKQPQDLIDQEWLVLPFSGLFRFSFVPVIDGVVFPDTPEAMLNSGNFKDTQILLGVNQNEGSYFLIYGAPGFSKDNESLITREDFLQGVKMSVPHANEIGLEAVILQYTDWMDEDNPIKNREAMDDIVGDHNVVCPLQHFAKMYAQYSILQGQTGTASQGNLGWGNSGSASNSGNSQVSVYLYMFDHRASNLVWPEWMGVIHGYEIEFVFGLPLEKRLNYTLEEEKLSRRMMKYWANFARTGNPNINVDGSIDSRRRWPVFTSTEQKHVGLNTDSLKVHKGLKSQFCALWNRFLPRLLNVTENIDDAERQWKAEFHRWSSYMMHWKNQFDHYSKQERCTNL
Cholinesterase (Equus caballus), sequence (P81908 whole entry): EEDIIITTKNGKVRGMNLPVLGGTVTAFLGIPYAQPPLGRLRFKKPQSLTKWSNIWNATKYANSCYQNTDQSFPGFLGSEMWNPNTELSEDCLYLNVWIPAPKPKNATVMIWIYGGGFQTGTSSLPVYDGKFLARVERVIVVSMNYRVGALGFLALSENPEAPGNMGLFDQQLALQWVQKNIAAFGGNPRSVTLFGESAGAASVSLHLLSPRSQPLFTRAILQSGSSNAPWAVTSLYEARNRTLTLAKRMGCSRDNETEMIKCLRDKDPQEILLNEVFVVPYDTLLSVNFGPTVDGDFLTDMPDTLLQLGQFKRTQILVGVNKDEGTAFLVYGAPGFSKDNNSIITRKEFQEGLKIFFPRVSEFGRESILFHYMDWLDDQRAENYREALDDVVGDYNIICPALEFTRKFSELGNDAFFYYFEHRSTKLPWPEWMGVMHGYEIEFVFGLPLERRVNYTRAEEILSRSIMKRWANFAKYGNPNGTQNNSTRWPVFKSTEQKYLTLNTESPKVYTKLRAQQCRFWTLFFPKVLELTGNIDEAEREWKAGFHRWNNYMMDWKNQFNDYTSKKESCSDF
Cholinesterase, sequence (P81908 whole entry): as above

SMILES: CCCCNC(=O)Oc1ccc(CC(=O)NC2CCN(Cc3ccccc3)CC2)cc1
- inhibition [1]: 63.4%
- IC50 (Cholinesterase): 11.7 µM
- inhibition [2]: 43.7%

SMILES: Cc1ccccc1NC(=O)Oc1ccc(CC(=O)NC2CCN(Cc3ccccc3)CC2)cc1
- inhibition [1]: 46.9%
- inhibition [2]: 24.7%

SMILES: CCCCNC(=O)Oc1ccc(CC(=O)N2CCN(Cc3ccccc3)CC2)cc1
- inhibition [1]: 83.1%
- IC50 (Cholinesterase): 16.6 µM
- inhibition [2]: inactive

SMILES: CN(C)C(=O)Oc1cccc(CC(=O)N2CCN(Cc3ccccc3)CC2)c1
- inhibition [1]: 79%
- IC50 (Cholinesterase): 23.4 µM
- inhibition [2]: inactive

SMILES: CC(C)NC(=O)Oc1ccc(CC(=O)NC2CCN(Cc3ccccc3)CC2)cc1
- inhibition [1]: 63.1%
- IC50 (Cholinesterase): 18.2 µM
- inhibition [2]: 19.2%

SMILES: CCCNC(=O)Oc1ccc(CC(=O)N2CCN(Cc3ccccc3)CC2)cc1
- inhibition [1]: 88.3%
- IC50 (Cholinesterase): 32.4 µM
- inhibition [2]: inactive

SMILES: O=C(Cc1cccc(O)c1)NC1CCN(Cc2ccccc2)CC1
- inhibition [1]: 49.8%
- inhibition [2]: 38.1%

SMILES: CCNC(=O)Oc1ccc(CC(=O)NC2CCN(Cc3ccccc3)CC2)cc1
- inhibition [1]: 90.4%
- IC50 (Cholinesterase): 10.7 µM
- inhibition [2]: 23.4%

SMILES: CCCCNC(=O)Oc1cccc(CC(=O)N2CCN(Cc3ccccc3)CC2)c1
- inhibition [1]: 92.7%
- IC50 (Cholinesterase): 10 µM
- inhibition [2]: inactive

SMILES: CCNC(=O)Oc1cccc(CC(=O)NC2CCN(Cc3ccccc3)CC2)c1
- inhibition [1]: 68.6%
- IC50 (Cholinesterase): 37.2 µM
- inhibition [2]: 28.5%

SMILES: CC(C)NC(=O)Oc1cccc(CC(=O)N2CCN(Cc3ccccc3)CC2)c1
- inhibition [1]: 77.7%
- IC50 (Cholinesterase): 35.5 µM
- inhibition [2]: inactive

SMILES: CCNC(=O)Oc1cccc(CC(=O)N2CCN(Cc3ccccc3)CC2)c1
- inhibition [1]: 62.5%
- IC50 (Cholinesterase): 55 µM
- inhibition [2]: inactive

SMILES: CC(C)NC(=O)Oc1ccc(CC(=O)N2CCN(Cc3ccccc3)CC2)cc1
- inhibition [1]: 72.2%
- IC50 (Cholinesterase): 52.5 µM
- inhibition [2]: inactive

SMILES: CC(C)NC(=O)Oc1cccc(CC(=O)NC2CCN(Cc3ccccc3)CC2)c1
- inhibition [1]: 72.2%
- IC50 (Cholinesterase): 29.5 µM
- inhibition [2]: 34.9%

SMILES: O=C(Cc1cccc(O)c1)N1CCN(Cc2ccccc2)CC1
- inhibition [1]: 31.5%
- inhibition [2]: inactive

SMILES: CN(C)C(=O)Oc1cccc(CC(=O)NC2CCN(Cc3ccccc3)CC2)c1
- inhibition [1]: 82.1%
- inhibition [3]: Active
- IC50 (Cholinesterase): 21.9 µM
- inhibition [4]: Active
- inhibition [2]: 50.5%

SMILES: CN(C)C(=O)Oc1ccc(CC(=O)N2CCN(Cc3ccccc3)CC2)cc1
- inhibition [1]: 32.5%
- inhibition [2]: inactive

SMILES: CCNC(=O)Oc1ccc(CC(=O)N2CCN(Cc3ccccc3)CC2)cc1
- inhibition [1]: 83.4%
- IC50 (Cholinesterase): 43.7 µM
- inhibition [2]: inactive

SMILES: CCCNC(=O)Oc1ccc(CC(=O)NC2CCN(Cc3ccccc3)CC2)cc1
- inhibition [1]: 95.1%
- IC50 (Cholinesterase): 9.33 µM
- inhibition [2]: 33.8%

SMILES: O=C(Cc1ccc(O)cc1)NC1CCN(Cc2ccccc2)CC1
- inhibition [1]: 45.6%
- inhibition [2]: 15.2%

SMILES: O=C(Cc1ccc(O)cc1)N1CCN(Cc2ccccc2)CC1
- inhibition [1]: 45.3%
- inhibition [2]: inactive

SMILES: CN(C)C(=O)Oc1ccc(CC(=O)NC2CCN(Cc3ccccc3)CC2)cc1
- inhibition [1]: 89.8%
- IC50 (Cholinesterase): 8.91 µM
- inhibition [2]: 46.2%

SMILES: CCCCNC(=O)Oc1cccc(CC(=O)NC2CCN(Cc3ccccc3)CC2)c1
- inhibition [1]: 92%
- IC50 (Cholinesterase): 5.75 µM
- inhibition [2]: 39.9%
